From ChEMBL document CHEMBL1141299, “Hologram QSAR model for the prediction of human oral bioavailability” (Bioorg Med Chem, 2007)

Legend:
Homo sapiens = experiment: (§1) Oral bioavailability in human; conditions: in vivo
[1] = as §1; conditions: in vivo

| SMILES | F (Homo sapiens) | bioavailability ([1]; F) | other results |
| --- | --- | --- | --- |
| O=C(NC[C@H]1CCCCN1)c1cc(OCC(F)(F)F)ccc1OCC(F)(F)F (stereo in doubt; 083) [(R)-FLECAINIDE] | 95% | – | – |
| C[C@H]1COc2c(N3CCN(C)CC3)c(F)cc3c(=O)c(C(=O)O)cn1c23.C[C@H]1COc2c(N3CCN(C)CC3)c(F)cc3c(=O)c(C(=O)O)cn1c23.O (stereo in doubt; 162) [LEVOFLOXACIN] | 97.5% | – | – |
| O=C(NC[C@H]1CCCCN1)c1cc(OCC(F)(F)F)ccc1OCC(F)(F)F (stereo in doubt; 268) [(R)-FLECAINIDE] | 70% | – | – |
| Cc1cn([C@H]2C[C@H](N=[N+]=[N-])[C@@H](CO)O2)c(=O)[nH]c1=O [ZIDOVUDINE] | – | 64% | – |
| O=C1Cc2cc(CCN3CCN(c4nsc5ccccc45)CC3)c(Cl)cc2N1 [ZIPRASIDONE] | – | 60% | – |
| Cc1ccc(-c2nc3ccc(C)cn3c2CC(=O)N(C)C)cc1 [ZOLPIDEM] | – | – | bioavailability [1]: 72% |
